Test results from publication PMC9481570, “A small molecule antagonist of SMN disrupts the interaction between SMN and RNAP II” (Nature Communications, 2022).
Where “and” joins values, the source holds several entries; their conditions need not be identical. Equal values may be shown once.

Columns and labels:
Assay in all cases: Affinity-purification and mass spectrometry (AP-MS) chemical proteomics, all proteins;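 as to Difference: 200 µM free competitor with 20 µM biotin probe overnight in lysate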
Type in all cases: binding
[1] = target: T1, proteins displaced from immobilized biotin-Cmpd 1 pulldowns (U2OS cell lysate) (Homo sapiens, UniProt O95478); details: GN=NSA2 (O95478)
T1 construct: endogenous in cells; host or cells: U2OS

[2] = target: T2, proteins displaced from immobilized biotin-Cmpd 1 pulldowns (U2OS cell lysate) (Homo sapiens, UniProt O15213); details: GN=WDR46 (O15213)
T2 construct: endogenous in cells; host or cells: U2OS

[3] = target: T3, proteins displaced from immobilized biotin-Cmpd 1 pulldowns (U2OS cell lysate) (Homo sapiens, UniProt Q96DA0); details: GN=ZG16B (Q96DA0)
T3 construct: endogenous in cells; host or cells: U2OS

[4] = target: T4, proteins displaced from immobilized biotin-Cmpd 1 pulldowns (U2OS cell lysate) (Homo sapiens, UniProt Q04837); details: GN=SSBP1 (Q04837)
T4 construct: endogenous in cells; host or cells: U2OS

[5] = target: T5, proteins displaced from immobilized biotin-Cmpd 1 pulldowns (U2OS cell lysate) (Homo sapiens, UniProt P01876); details: GN=IGHA1 (P01876)
T5 construct: endogenous in cells; host or cells: U2OS

[6] = target: T6, proteins displaced from immobilized biotin-Cmpd 1 pulldowns (U2OS cell lysate) (Homo sapiens, UniProt P06396); details: GN=GSN (P06396)
T6 construct: endogenous in cells; host or cells: U2OS

[7] = target: T7, proteins displaced from immobilized biotin-Cmpd 1 pulldowns (U2OS cell lysate) (Homo sapiens, UniProt Q5T749); details: GN=KPRP (Q5T749)
T7 construct: endogenous in cells; host or cells: U2OS

[8] = target: T8, proteins displaced from immobilized biotin-Cmpd 1 pulldowns (U2OS cell lysate) (Homo sapiens, UniProt Q14980); details: GN=NUMA1 (Q14980)
T8 construct: endogenous in cells; host or cells: U2OS

[9] = target: T9, proteins displaced from immobilized biotin-Cmpd 1 pulldowns (U2OS cell lysate) (Homo sapiens, UniProt Q8WXX7); details: GN=AUTS2 (Q8WXX7)
T9 construct: endogenous in cells; host or cells: U2OS

[10] = target: T10, proteins displaced from immobilized biotin-Cmpd 1 pulldowns (U2OS cell lysate) (Homo sapiens, UniProt Q01105); details: GN=SET (Q01105)
T10 construct: endogenous in cells; host or cells: U2OS
T10 sequence (Q01105 whole entry): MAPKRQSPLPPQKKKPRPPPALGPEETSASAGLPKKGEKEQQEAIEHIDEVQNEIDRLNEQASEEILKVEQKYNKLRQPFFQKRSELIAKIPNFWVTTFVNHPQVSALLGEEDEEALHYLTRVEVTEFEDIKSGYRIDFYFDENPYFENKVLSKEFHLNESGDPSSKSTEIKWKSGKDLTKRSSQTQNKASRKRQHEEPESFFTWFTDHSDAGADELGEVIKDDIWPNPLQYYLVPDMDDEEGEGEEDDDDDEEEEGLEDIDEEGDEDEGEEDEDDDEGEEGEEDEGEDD

T8 sequence (Q14980 whole entry): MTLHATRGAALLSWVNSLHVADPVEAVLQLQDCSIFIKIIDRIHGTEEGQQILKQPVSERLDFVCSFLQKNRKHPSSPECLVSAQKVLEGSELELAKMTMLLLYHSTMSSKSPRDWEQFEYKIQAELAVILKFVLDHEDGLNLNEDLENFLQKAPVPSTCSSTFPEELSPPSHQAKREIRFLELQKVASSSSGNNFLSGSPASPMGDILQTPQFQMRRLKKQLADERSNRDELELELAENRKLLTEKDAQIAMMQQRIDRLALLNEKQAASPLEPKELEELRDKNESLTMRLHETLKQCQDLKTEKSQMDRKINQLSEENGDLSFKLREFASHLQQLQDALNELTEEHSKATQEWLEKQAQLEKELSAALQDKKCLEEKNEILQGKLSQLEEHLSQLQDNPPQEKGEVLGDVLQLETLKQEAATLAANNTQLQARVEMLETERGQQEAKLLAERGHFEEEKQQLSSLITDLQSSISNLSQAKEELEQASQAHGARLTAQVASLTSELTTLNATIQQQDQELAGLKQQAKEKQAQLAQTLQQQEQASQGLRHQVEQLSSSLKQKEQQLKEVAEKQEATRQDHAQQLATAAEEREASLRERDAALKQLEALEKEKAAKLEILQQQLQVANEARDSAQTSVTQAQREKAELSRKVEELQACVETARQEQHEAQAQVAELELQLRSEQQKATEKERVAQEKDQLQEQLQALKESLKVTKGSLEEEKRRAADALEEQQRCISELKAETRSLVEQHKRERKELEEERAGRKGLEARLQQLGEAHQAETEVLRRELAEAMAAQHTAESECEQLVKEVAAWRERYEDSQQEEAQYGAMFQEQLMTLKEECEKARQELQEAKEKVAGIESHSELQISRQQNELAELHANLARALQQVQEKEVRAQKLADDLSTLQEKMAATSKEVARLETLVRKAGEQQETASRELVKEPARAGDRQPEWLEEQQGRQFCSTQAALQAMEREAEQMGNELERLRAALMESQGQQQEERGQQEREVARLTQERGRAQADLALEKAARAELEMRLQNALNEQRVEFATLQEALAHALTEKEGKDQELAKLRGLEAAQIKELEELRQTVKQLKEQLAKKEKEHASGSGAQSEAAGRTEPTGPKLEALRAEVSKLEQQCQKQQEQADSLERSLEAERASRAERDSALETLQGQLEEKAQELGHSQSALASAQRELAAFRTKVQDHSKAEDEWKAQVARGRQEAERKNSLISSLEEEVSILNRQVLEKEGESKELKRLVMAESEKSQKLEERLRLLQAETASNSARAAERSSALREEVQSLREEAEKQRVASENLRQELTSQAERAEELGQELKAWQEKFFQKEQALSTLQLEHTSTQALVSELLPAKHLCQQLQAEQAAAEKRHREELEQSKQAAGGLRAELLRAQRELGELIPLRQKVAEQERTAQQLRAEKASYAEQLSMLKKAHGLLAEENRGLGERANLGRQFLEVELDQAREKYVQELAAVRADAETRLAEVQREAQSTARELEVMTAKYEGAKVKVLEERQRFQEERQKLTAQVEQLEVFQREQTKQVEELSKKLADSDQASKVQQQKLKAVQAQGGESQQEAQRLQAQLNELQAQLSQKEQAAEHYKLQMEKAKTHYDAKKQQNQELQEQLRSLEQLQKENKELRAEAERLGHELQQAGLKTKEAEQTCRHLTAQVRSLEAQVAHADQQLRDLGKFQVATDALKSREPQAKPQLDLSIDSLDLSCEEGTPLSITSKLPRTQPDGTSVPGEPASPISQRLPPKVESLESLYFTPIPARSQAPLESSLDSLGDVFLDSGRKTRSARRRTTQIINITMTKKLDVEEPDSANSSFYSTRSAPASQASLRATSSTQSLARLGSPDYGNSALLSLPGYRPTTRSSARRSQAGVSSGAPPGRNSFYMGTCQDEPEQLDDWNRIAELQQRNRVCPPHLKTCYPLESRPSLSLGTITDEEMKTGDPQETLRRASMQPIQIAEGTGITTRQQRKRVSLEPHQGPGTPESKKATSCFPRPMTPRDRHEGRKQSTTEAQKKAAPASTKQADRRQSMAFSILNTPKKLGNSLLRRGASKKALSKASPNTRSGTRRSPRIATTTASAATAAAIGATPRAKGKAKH
T4 sequence (Q04837 17-148): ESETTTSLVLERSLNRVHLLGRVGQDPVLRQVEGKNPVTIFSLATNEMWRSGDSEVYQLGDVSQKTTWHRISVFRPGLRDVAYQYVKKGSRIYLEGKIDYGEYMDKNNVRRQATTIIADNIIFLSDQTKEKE
T6 sequence (P06396 28-782): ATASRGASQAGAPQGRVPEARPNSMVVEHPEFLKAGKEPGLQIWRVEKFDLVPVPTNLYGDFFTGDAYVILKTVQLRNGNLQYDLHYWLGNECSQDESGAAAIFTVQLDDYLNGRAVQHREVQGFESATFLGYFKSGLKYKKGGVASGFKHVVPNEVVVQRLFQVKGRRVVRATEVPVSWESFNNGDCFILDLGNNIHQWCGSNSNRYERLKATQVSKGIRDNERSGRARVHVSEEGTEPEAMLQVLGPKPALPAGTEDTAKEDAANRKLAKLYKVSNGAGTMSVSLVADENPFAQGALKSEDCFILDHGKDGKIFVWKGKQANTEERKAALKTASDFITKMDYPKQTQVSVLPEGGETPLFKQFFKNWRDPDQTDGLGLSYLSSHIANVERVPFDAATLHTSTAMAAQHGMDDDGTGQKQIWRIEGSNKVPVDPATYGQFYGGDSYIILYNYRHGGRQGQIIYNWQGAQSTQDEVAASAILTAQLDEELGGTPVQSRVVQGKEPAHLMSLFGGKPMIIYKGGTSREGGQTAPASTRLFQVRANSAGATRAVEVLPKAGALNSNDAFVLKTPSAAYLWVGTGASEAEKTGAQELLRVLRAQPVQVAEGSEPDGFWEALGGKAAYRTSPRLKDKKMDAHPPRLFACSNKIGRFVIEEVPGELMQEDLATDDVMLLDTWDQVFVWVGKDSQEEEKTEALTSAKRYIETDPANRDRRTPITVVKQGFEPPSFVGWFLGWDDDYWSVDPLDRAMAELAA
T9 sequence (Q8WXX7 whole entry): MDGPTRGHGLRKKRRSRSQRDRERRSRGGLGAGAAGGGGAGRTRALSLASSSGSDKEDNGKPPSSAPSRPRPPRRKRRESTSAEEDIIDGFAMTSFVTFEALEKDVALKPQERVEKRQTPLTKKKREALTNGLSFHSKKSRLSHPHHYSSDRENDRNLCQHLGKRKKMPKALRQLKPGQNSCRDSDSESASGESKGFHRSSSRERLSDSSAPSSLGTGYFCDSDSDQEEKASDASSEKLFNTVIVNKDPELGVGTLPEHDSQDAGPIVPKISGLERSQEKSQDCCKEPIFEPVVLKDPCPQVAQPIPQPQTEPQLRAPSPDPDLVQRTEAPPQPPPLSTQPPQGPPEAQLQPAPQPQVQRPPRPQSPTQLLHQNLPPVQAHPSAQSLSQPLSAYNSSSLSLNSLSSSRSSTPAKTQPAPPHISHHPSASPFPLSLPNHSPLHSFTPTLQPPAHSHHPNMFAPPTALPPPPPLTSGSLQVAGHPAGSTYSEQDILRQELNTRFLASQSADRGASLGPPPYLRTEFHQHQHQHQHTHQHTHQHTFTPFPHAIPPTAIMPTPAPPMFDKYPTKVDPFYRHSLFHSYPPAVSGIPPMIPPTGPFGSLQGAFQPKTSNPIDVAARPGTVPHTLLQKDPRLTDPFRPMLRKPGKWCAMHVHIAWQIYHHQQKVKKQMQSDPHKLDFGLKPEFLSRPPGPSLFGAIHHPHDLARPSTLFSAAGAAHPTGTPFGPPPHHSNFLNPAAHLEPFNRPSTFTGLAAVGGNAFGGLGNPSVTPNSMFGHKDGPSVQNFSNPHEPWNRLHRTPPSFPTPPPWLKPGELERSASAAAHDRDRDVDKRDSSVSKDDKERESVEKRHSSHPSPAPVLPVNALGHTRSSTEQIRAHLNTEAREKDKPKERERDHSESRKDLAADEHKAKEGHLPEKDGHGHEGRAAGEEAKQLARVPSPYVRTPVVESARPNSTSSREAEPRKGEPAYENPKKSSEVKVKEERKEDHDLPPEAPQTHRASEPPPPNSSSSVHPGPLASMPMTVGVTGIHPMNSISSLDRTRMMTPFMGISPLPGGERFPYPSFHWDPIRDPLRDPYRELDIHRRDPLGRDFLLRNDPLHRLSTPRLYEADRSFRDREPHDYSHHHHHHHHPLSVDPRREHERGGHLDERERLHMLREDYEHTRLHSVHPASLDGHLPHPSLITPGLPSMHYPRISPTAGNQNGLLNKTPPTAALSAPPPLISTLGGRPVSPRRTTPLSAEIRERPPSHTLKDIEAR
T5 sequence (P01876 whole entry): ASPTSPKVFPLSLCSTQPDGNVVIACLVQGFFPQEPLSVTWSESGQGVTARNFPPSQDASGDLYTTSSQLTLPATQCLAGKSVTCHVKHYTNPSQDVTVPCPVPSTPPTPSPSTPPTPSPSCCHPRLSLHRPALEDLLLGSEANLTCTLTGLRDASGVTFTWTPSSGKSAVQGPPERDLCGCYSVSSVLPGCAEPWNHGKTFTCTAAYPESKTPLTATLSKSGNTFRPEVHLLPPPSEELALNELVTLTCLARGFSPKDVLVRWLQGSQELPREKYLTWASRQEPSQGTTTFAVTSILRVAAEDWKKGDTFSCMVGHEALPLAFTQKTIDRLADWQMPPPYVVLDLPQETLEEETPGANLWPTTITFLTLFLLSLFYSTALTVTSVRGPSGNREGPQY

Cn1c2c(c(=N)c3c1CCC3)CCC2 [Compound 1, 4-methyl-2,3,4,5,6,7-hexahydrodicyclopenta[b,e]pyridin-8(1H)-imine]
Difference ([1]; Cmpd minus DMSO, -LOG(P-value) 0.709566): 1.456 | iBAQ Cmpd ([1]; replicates 1-3): 18.8418 and 18.1506 and 17.9444 | Difference ([2]; Cmpd minus DMSO, -LOG(P-value) 1.25579): -1.697 | iBAQ Cmpd ([2]; replicates 1-3): 17.4002 and 17.0091 and 16.4289 | Difference ([3]; Cmpd minus DMSO, -LOG(P-value) 1.41535): -4.273 | iBAQ Cmpd ([3]; replicates 1-3): 15.4223 and 14.7351 and 17.7658 | Difference ([4]; Cmpd minus DMSO, -LOG(P-value) 1.29916): 1.094 | iBAQ Cmpd ([4]; replicates 1-3): 21.1032 and 19.9004 and 20.5342 | Difference ([5]; Cmpd minus DMSO, -LOG(P-value) 0.808053): -3.043 | iBAQ Cmpd ([5]; replicates 1-3): 18.0352 and 17.6842 and 20.2605 | Difference ([6]; Cmpd minus DMSO, -LOG(P-value) 0.71197): -1.503 | iBAQ Cmpd ([6]; replicates 1-3): 18.7093 and 18.978 and 19.6978 | Difference ([7]; Cmpd minus DMSO, -LOG(P-value) 1.8417): -3.732 | iBAQ Cmpd ([7]; replicates 1-3): 15.9159 and 16.7213 and 14.3127 | Difference ([8]; Cmpd minus DMSO, -LOG(P-value) 0.722853): 1.264 | iBAQ Cmpd ([8]; replicates 1-3): 20.9325 and 19.3521 and 19.3092 | Difference ([9]; Cmpd minus DMSO, -LOG(P-value) 1.37908): 1.498 | iBAQ Cmpd ([9]; replicates 1-3): 16.2582 and 17.12 and 17.1513 | Difference ([10]; Cmpd minus DMSO, -LOG(P-value) 0.992199): 4.792 | iBAQ Cmpd ([10]; replicates 1-3): 21.3063 and 22.1737 and 20.6451
